Here are results for one compound from publication PMC6717892 (The EMBO Journal, 2019).

SMILES strings stand for the structures.

The assay addresses T1, Bd1971 (Bdellovibrio bacteriovorus, UniProt Q6MLN6).
T1 construct: ITC: Bd1971ΔEAL (residues 1–150); crystal: full-length
Put plainly: ITC (two-site model) and co-crystal structure; also activates phosphodiesterase activity (K half […]). The class given is binding.

T1 sequence (Q6MLN6 entry or part of it): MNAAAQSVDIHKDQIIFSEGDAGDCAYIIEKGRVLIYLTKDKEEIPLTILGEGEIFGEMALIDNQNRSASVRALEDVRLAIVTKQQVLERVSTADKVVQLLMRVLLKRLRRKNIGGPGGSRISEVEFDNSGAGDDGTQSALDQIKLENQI

As a reminder, the Kd is the equilibrium constant for the complex coming apart. A high value points to lower affinity. `Nc1nc2c(ncn2[C@@H]2O[C@@H]3COP(=O)(O)O[C@H]3[C@H]2O)c(=O)[nH]1` [cGMP] returned a Kd of 769 nM.
